Measurements reported in ChEMBL document CHEMBL5543174, “A Nonbactericidal Anionic Antimicrobial Peptide Provides Prophylactic and Therapeutic Efficacies against Bacterial Infections in Mice by Immunomodulatory-Antithrombotic Duality” (J Med Chem, 2024).
The source made the active and inactive calls. The calls are words filed in the database; no cut-off is given here.

Key:
Lymphocyte = test: Immunomodulatory activity in mouse spleen derived lymphocyte assessed as increase in lymphocyte proliferation at < 200 ug/ml incubated for 24 hrs by CCK-8 assay; type: functional, cell-based; conditions: dose < 200.0 µg/ml
Escherichia coli [1] = test: Antimicrobial activity against Escherichia coli ATCC 25922 assessed as inhibition of microbial growth at <= 200 ug/ml incubated for 18 hrs by micro-broth dilution method; type: functional, organism-based; conditions: dose <= 200.0 µg/ml
Pseudomonas aeruginosa = test: Antimicrobial activity against Pseudomonas aeruginosa ATCC 27853 assessed as inhibition of microbial growth at <= 200 ug/ml incubated for 18 hrs by micro-broth dilution method; type: functional, organism-based; conditions: dose <= 200.0 µg/ml
Escherichia coli [2] = test: Antimicrobial activity against Carbapenem-resistant Escherichia coli assessed as inhibition of microbial growth at <= 200 ug/ml incubated for 18 hrs by micro-broth dilution method; type: functional, organism-based; conditions: dose <= 200.0 µg/ml
Staphylococcus aureus [3] = test: Antimicrobial activity against Methicillin-resistant Staphylococcus aureus assessed as inhibition of microbial growth at <= 200 ug/ml incubated for 18 hrs by micro-broth dilution method; type: functional, organism-based; conditions: dose <= 200.0 µg/ml
Escherichia coli [4] = test: Antimicrobial activity against Escherichia coli ATCC 25922 assessed as reduction in microbial colony forming unit at 200 ug/ml incubated for 1 to 4 hrs by time-kill kinetics based analysis; type: functional, organism-based; conditions: dose 200.0 µg/ml, time 1-4 hrs
Escherichia coli [5] = test: Antibacterial activity against Carbapenem-resistant Escherichia coli infected in C57BL/6 mouse assessed as reduction in bacterial load at 10 mg/kg,ip pre-administrated 5 hrs before bacterial infection; type: functional, organism-based
Escherichia coli [6] = test: Antibacterial activity against Carbapenem-resistant Escherichia coli infected in C57BL/6 mouse assessed as reduction in bacterial load at 10 mg/kg,ip administrated 5 hrs after bacterial infection; type: functional, organism-based
Staphylococcus aureus [7] = test: Antibacterial activity against Staphylococcus aureus ATCC 25923 infected in C57BL/6 mouse assessed as reduction in IL-6 level in peritoneal fluid at 10 mg/kg,ip pre-administrated 5 hrs before bacterial infection measured after 24 hrs by ELISA; type: functional, organism-based; conditions: time 29.0 hrs
Staphylococcus aureus [8] = test: Antibacterial activity against Staphylococcus aureus ATCC 25923 infected in C57BL/6 mouse assessed as reduction in IL-6 level in peritoneal fluid at 10 mg/kg,ip administrated 5 hrs after bacterial infection measured after 24 hrs by ELISA; type: functional, organism-based; conditions: time 19.0 hrs
Staphylococcus aureus [9] = test: Antibacterial activity against Methicillin-resistant Staphylococcus aureus infected in C57BL/6 mouse assessed as reduction in IL-1beta level in peritoneal fluid at 10 mg/kg,ip pre-administrated 5 hrs before bacterial infection measured after 24 hrs by ELISA; type: functional, organism-based; conditions: time 29.0 hrs
Staphylococcus aureus [10] = test: Antibacterial activity against Methicillin-resistant Staphylococcus aureus infected in C57BL/6 mouse assessed as reduction in TNF-alpha level in peritoneal fluid at 10 mg/kg,ip administrated 5 hrs after bacterial infection measured after 24 hrs by ELISA; type: functional, organism-based; conditions: time 19.0 hrs
Escherichia coli [11] = test: Antibacterial activity against Carbapenem-resistant Escherichia coli infected in C57BL/6 mouse assessed as reduction in IL-6 level in serum at 10 mg/kg,ip pre-administrated 5 hrs before bacterial infection measured after 24 hrs by ELISA; type: functional, organism-based; conditions: time 29.0 hrs
Escherichia coli [12] = test: Antibacterial activity against Carbapenem-resistant Escherichia coli infected in C57BL/6 mouse assessed as reduction in TNF-alpha level in serum at 10 mg/kg,ip administrated 5 hrs after bacterial infection measured after 24 hrs by ELISA; type: functional, organism-based; conditions: time 19.0 hrs
Staphylococcus aureus [13] = test: Antibacterial activity against Staphylococcus aureus ATCC 25923 infected in C57BL/6 mouse assessed as reduction in inflammatory injury in lung at 10 mg/kg,ip pre-administrated 5 hrs before bacterial infection measured after 24 hrs by hematoxylin and eosin staining based analysis; type: functional, organism-based; conditions: time 29.0 hrs
Mus musculus [14] = test: Immunomodulatory activity in clodronate liposome immunosuppressed C57BL/6 mouse with monocyte depletion model assessed as increase in number of monocyte in peritoneal lavage at 10 mg/kg,ip administration measured after 24 hrs by flow cytometry; type: functional, organism-based
Peritoneal macrophage [15] = test: Induction of chemotaxis in mouse Peritoneal macrophage assessed as upregulation of CXCL1 gene expression incubated for 6 hrs by qPCR analysis; type: functional, cell-based
Mus musculus [16] = test: Induction of chemotaxis in C57BL/6 mouse assessed as upregulation of CXCL2 expression in peritoneal lavage at 10 mg/kg,ip administration measured at 5 to 24 hrs by ELISA; type: functional, organism-based; conditions: time 5-24 hrs
Peritoneal macrophage [17] = test: Immunomodulatory activity in mouse Peritoneal macrophage assessed as decrease in LTA-induced IL-6 production at 25 to 100 ug/ml incubated for 6 hrs by ELISA; type: functional, cell-based; conditions: dose 25-100 µg/ml
[18] = tested on: Peritoneal macrophage cell; test: Induction of chemotaxis in mouse Peritoneal macrophage assessed as increase in macrophage migration at 100 ug/ml preincubated with WRW4 for 30 mins followed by compound addition measured after 8 hrs by crystal violet staining based indirect transwell assay; type: functional, cell-based; conditions: dose 100.0 µg/ml
Neutrophil = test: Induction of chemotaxis in mouse bone marrow derived neutrophil assessed as increase in neutrophil migration at 100 ug/ml preincubated with MTS510 for 30 mins followed by compound addition measured after 8 hrs by crystal violet staining based indirect transwell assay; type: functional, cell-based; conditions: dose 100.0 µg/ml
[19] = tested on: Peritoneal macrophage cell; test: Induction of chemotaxis in mouse Peritoneal macrophage assessed as increase in macrophage migration at 100 ug/ml preincubated with PTX for 30 mins followed by compound addition measured after 8 hrs by crystal violet staining based indirect transwell assay; type: functional, cell-based; conditions: dose 100.0 µg/ml
Peritoneal macrophage [20] = test: Induction of chemotaxis in mouse Peritoneal macrophage assessed as upregulation of CXCL1 production at 100 ug/ml preincubated with WRW4 followed by compound addition by ELISA; type: functional, cell-based; conditions: dose 100.0 µg/ml
Peritoneal macrophage [21] = test: Induction of chemotaxis in mouse Peritoneal macrophage assessed as upregulation of MCP-1 production at 100 ug/ml preincubated with KN-62 followed by compound addition by ELISA; type: functional, cell-based; conditions: dose 100.0 µg/ml
Peritoneal macrophage [22] = test: Immunoregulatory activity in mouse Peritoneal macrophage assessed as change in total p65 expression at 25 to 100 ug/ml incubated for 1 hr by Western blotting analysis; type: functional, cell-based; conditions: dose 25-100 µg/ml
Mus musculus [23] = test: Antithrombotic activity in carrageenan-induced tail thrombosis BALB/c mouse model assessed as reduction in thrombus length at 10 mg/kg,ip administration measured for 6 to 48 hrs; type: functional, organism-based; conditions: time 6-48 hrs
Mus musculus [24] = test: Antithrombotic activity in BALB/c mouse dorsal skin defect model assessed as increase in skin bleeding time at 30 mg/kg,SC administration; type: functional, organism-based
Plasma = test: Anticoagulation activity in human platelet poor plasma assessed as elongation of activated partial thromboplastin time at 100 ug/ml measured after 5 mins; type: functional, cell-free; conditions: dose 100.0 µg/ml
Mus musculus [25] = test: Anticoagulation activity in mouse assessed as change in plasma APC expression at 10 mg/kg,ip measured after 24 hrs by ELISA; type: functional, organism-based
Mus musculus [26] = test: Anticoagulation activity in mouse infected with Carbapenem-resistant Escherichia coli assessed as increase in plasma AT-III expression at 10 mg/kg,ip pre-administrated 5 hrs before bacterial infection measured after 24 hrs by ELISA; type: functional, organism-based; conditions: time 29.0 hrs
Staphylococcus aureus [27] = test: (§1) Antibacterial activity against Methicillin-resistant Staphylococcus aureus infected in C57BL/6 mouse with cyclophosphamide-induced neutrophil depletion model assessed as reduction of bacterial burden in peritoneal cavity at 10 mg/kg,ip pre-administrated 5 hrs before bacterial infection measured after 24 hrs; type: functional, organism-based; conditions: time 29.0 hrs
Staphylococcus aureus [28] = test: as §1, with “clodronate liposome-induced monocyte” for “cyclophosphamide-induced neutrophil”, “administrated” for “pre-administrated”, “after” for “before”; type: functional, organism-based; conditions: time 19.0 hrs

SMILES: CC[C@H](C)[C@H](NC(=O)[C@@H]1CSSC[C@H](NC(=O)[C@H](CCC(=O)O)NC(=O)[C@@H](NC(=O)[C@H](CCCCN)NC(=O)[C@H](Cc2c[nH]cn2)NC(=O)[C@@H](NC(=O)[C@H](CCCCN)NC(=O)[C@H](CCC(=O)O)NC(=O)[C@H](C)NC(=O)[C@H](CCC(=O)O)NC(=O)[C@H](CCC(=O)O)NC(=O)[C@H](CCC(=O)O)NC(=O)[C@H](C)N)[C@@H](C)O)[C@@H](C)O)C(=O)N[C@@H](CC(C)C)C(=O)N[C@@H](CCC(=O)O)C(=O)N1)C(=O)N[C@@H](Cc1ccccc1)C(=O)N[C@H](C(=O)N[C@@H](CC(C)C)C(=O)N[C@@H](CC(C)C)C(=O)N1CCC[C@H]1C(=O)N1CCC[C@@H]1C(=O)N[C@H](C)C(=O)O)[C@@H](C)O
- Activity (Lymphocyte): inactive
- Activity (Escherichia coli [1]): inactive
- Activity (Pseudomonas aeruginosa): inactive
- Activity (Escherichia coli [2]): inactive
- Activity (Staphylococcus aureus [3]): inactive
- Activity (Escherichia coli [4]): inactive
- Activity (Escherichia coli [5]): Active
- Activity (Escherichia coli [6]): Active
- Activity (Staphylococcus aureus [7]): Active
- Activity (Staphylococcus aureus [8]): Active
- Activity (Staphylococcus aureus [9]): Active
- Activity (Staphylococcus aureus [10]): Active
- Activity (Escherichia coli [11]): Active
- Activity (Escherichia coli [12]): Active
- Activity (Staphylococcus aureus [13]): Active
- Activity (Mus musculus [14]): inactive
- Activity (Peritoneal macrophage [15]): Dose-Dependent Effect
- Activity (Mus musculus [16]): inactive
- Activity (Peritoneal macrophage [17]): inactive
- Activity [18]: Active
- Activity (Neutrophil): Active
- Activity [19]: inactive
- Activity (Peritoneal macrophage [20]): Active
- Activity (Peritoneal macrophage [21]): Active
- Activity (Peritoneal macrophage [22]): inactive
- Activity (Mus musculus [23]): Active
- Activity (Mus musculus [24]): inactive
- Activity (Plasma): inactive
- Activity (Mus musculus [25]): inactive
- Activity (Mus musculus [26]): Active
- Activity (Staphylococcus aureus [27]): inactive
- Activity (Staphylococcus aureus [28]): inactive
